Laboratory results published in patent publication US20220372014A1, “NEUROPROTECTIVE COMPOUNDS AND METHODS OF USE THEREOF” (The Johns Hopkins University, priority 2019, published 2022).

Legend:
[1] = system: HeLa cells or neuronal cells; assay: Cell death assay of Example 3 (MNNG, alamarBlue; protection against parthanatos, Table 4); format: cell-based; conditions: 1 μM test compound, MNNG-induced cell death, alamarBlue
Description: Cell death assay: 200 μl of cells (HeLa cells or neuronal cells) culture (1×10^4 cells/well) were plated into the wells of a sterile 96-well cell culture plate. The cells were incubated for 18 hours at 37° C. The medium was removed and changed with 100 μl/well of 1 μM test compound. Incubate for 1 hours at 37° C. Ten μl of 500 μM MNNG (N-Methyl-N′-nitro-N-nitrosoguanidine) was added to each well. The medium was aspirated well and incubated for 15 min at 37° C. The cells were washed with the fresh medium. The medium was changed with 1 μM of test compound and incubated for 18 hours at 37° C. 10 μl/well of alamarBlue reagent was added directly to the well and incubated for 1 to 4 hours at 37° C. Fluorescence was measured using a fluorescence excitation wavelength of 560 nm and emission at 590 nm. The percentage of cell death was determined as the ratio of live to dead cells compared with the percentage of cell death in control wells to account for cell death attributed to mechanical stimulation of the cultures.

MIF = target: T1, MIF (Homo sapiens, UniProt P14174); assay: Nuclease assay of Example 3 (MIF inhibitory activity, Table 4); format: biochemical; parameters: (%) inhibition of MIF nuclease activity: concentration or dose not given beside the values; conditions: nuclease assay of Example 3
T1 sequence (P14174 1-115): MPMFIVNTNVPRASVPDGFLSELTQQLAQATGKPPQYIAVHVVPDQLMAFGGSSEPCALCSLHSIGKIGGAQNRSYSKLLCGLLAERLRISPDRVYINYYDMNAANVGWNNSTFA
Description: A rapafucin library was synthesized as described in WO2017/136708 and Guo et al. (2018) Nat. Chem. 11:254-63. The hybrid macrocyclic library consisted of 45,000 compounds in pools of 15 individual compounds. The library compounds were screened for MIF inhibitory activity using a nuclease assay as detailed in FIG. 1 and below.
Nuclease assay: Human genomic DNA (200 ng/reaction, Promega), pcDNA (200 ng/reaction) or PS^30 and its related and non-related substrates (1 μM) was incubated with wild type MIF or its variants at a final concentration of 0.25-8 μM as indicated in 10 mM Tris-HCl buffer (pH 7.0) containing 10 mM MgCl2 and 1 mM DTT or specific buffer as indicated, for 1 h (with pcDNA and small DNA substrates) or 4 h (with human genomic DNA) at 37° C. The reaction was terminated with loading buffer containing 10 mM EDTA and incubation on ice. The human genomic DNA samples were immediately separated on a 1.2% pulse field certified agarose in 0.5×TBE buffer with initial switch time of 1.5 s and a final switch time of 3.5 s for 12 h at 6 V/cm. pcDNA samples were determined by 1% agarose gel. Small DNA substrates were separated on 15% or 25% TBE-urea polyacrylamide (PAGE) gel or 20% TBE PAGE gel. Then gel was stained with 0.5 μg/ml Ethidium Bromide (EtBr) followed by electrophoretic transfer to nylon membrane. Then, Biotin-labeled DNA is further detected by chemiluminescence using Chemiluminescent Nucleic Acid Detection Module (Thermo Scientific).
Structure-activity relationship (SAR) analysis was then conducted on the compounds identified as having MIF inhibitory activity. Compounds having the structure of Formula (I) were then synthesized as shown in Example 1 and tested for MIF inhibitory activity using the nuclease assay described herein and neuronal protection via a cell death assay as detailed below.

SMILES	(%) inhibition of cell death [1]	(%) inhibition of MIF nuclease activity (MIF)	(%) inhibition of cell death ([1]; 1 µM)
COc1ccc(CC[C@H]2OC(=O)[C@@H]3CCCCN3C(=O)C(=O)C(C)(C)COC(=O)C=CCCN(C)C(=O)[C@H](Cc3ccccc3)NC(=O)[C@H](COC(C)(C)C)N(C)C(=O)C(c3ccccc3)NC(=O)[C@H](C)N(C)C(=O)COc3cccc2c3)cc1OC (stereo partly drawn) [compound 53]	58.3%	14.1%	
COc1ccc(CC[C@H]2OC(=O)[C@@H]3CCCCN3C(=O)C(=O)C(C)(C)COC(=O)C=CCCN(C)C(=O)[C@@H](C)NC(=O)[C@H](COC(C)(C)C)N(C)C(=O)C(c3ccccc3)NC(=O)CN(C)C(=O)COc3cccc2c3)cc1OC (stereo partly drawn) [compound 33]	53.4%	12.6%	
COc1ccc(CC[C@H]2OC(=O)[C@@H]3CCCCN3C(=O)C(=O)C(C)(C)COC(=O)C=CCCN(C)C(=O)[C@H](Cc3ccccc3)NC(=O)[C@H](COC(C)(C)C)N(C)C(=O)[C@H](Cc3ccc4ccccc4c3)NC(=O)[C@H](C)N(C)C(=O)COc3cccc2c3)cc1OC [compound 23]	58.7%	45.7%	
COc1ccc(CC[C@H]2OC(=O)[C@@H]3CCCCN3C(=O)C(=O)C(C)(C)COC(=O)C=CCCN(C)C(=O)[C@@H]3CCCN3C(=O)[C@H](COC(C)(C)C)N(C)C(=O)[C@H](C)NC(=O)[C@H](C)N(C)C(=O)COc3cccc2c3)cc1OC [compound 100]	26.1%	13.4%	
COc1ccc(CC[C@H]2OC(=O)[C@@H]3CN(C(=O)OCC4c5ccccc5-c5ccccc54)CCN3C(=O)C(=O)C(C)(C)COC(=O)C=CCCN(C)C(=O)[C@@H]3CCCN3C(=O)[C@H](COC(C)(C)C)N(C)C(=O)C(c3ccccc3)NC(=O)[C@H](C)N(C)C(=O)COc3cccc2c3)cc1OC (stereo partly drawn) [compound 127]	46.4%	5.0%	
COc1ccc(CC[C@H]2OC(=O)[C@@H]3CCCCN3C(=O)C(=O)C(C)(C)COC(=O)C=CCCN(C)C(=O)[C@@H]3CCCN3C(=O)[C@H](COC(C)(C)C)N(C)C(=O)C(c3ccccc3)NC(=O)[C@H](C)N(C)C(=O)COc3cccc2c3)cc1OC (stereo partly drawn) [compound 152]		−2.4%	43.0%
COCC[C@@H]1NC(=O)[C@H](C(C)C)N(C)C(=O)[C@@H](Cc2ccccc2)NC(=O)[C@H](CC(C)C)N(C)C(=O)CCC(=O)Nc2cccc(c2)[C@@H](CCc2ccc(OC)c(OC)c2)OC(=O)[C@@H]2CCCCN2C(=O)C(=O)C(C)(C)COC(=O)C=CCCN(C)C1=O [compound 80]	49.5%	10.3%	
COc1ccc(CC[C@H]2OC(=O)[C@@H]3CCCCN3C(=O)C(=O)C(C)(C)COC(=O)C=CCCN(C)C(=O)[C@H](CC(C)C)NC(=O)[C@H](COC(C)(C)C)N(C)C(=O)[C@H](Cc3ccc4ccccc4c3)NC(=O)[C@H](C)N(C)C(=O)COc3cccc2c3)cc1OC [compound 21]	61.0%	57.9%	
COc1ccc(CC[C@H]2OC(=O)[C@@H]3CCCCN3C(=O)C(=O)C(C)(C)COC(=O)C=CCCN(C)C(=O)[C@@H]3CCCN3C(=O)[C@H](COC(C)(C)C)N(C)C(=O)C(c3ccccc3)NC(=O)[C@H](C)N(C)C(=O)COc3cncc2c3)cc1OC (stereo partly drawn) [compound 126]	46.8%	6.7%	
CCC[C@@H]1NC(=O)[C@H](COC(C)(C)C)N(C)C(=O)[C@@H](CC(C)C)NC(=O)CN(C)C(=O)COc2cccc(c2)[C@@H](CCc2ccc(OC)c(OC)c2)OC(=O)[C@@H]2CCCCN2C(=O)C(=O)C(C)(C)COC(=O)C=CCCN(C)C1=O [compound 4]	39.7%	10.8%	
COc1ccc(CC[C@H]2OC(=O)[C@@H]3CCCCN3C(=O)C(=O)C(C)(C)COC(=O)C=CCCN(C)C(=O)[C@@H](C)NC(=O)[C@H](COC(C)(C)C)N(C)C(=O)[C@H](Cc3ccc4ccccc4c3)NC(=O)[C@H](C)N(C)C(=O)COc3cccc2c3)cc1OC [compound 18]	78.4%	65.0%	
COc1ccc(CC[C@H]2OC(=O)[C@@H]3CCCCN3C(=O)C(=O)C(C)(C)COC(=O)C=CCCN(C)C(=O)[C@H](CC(C)C)NC(=O)[C@H](COC(C)(C)C)N(C)C(=O)[C@@H](CC(C)C)NC(=O)CN(C)C(=O)COc3cccc2c3)cc1OC [compound 6]	46.5%	30.8%	
COc1ccc(CC[C@H]2OC(=O)[C@@H]3CCCCN3C(=O)C(=O)C(C)(C)COC(=O)C=CCCN(C)C(=O)[C@@H]3CCCN3C(=O)[C@H](COC(C)(C)C)N(C)C(=O)C(c3ccccc3)NC(=O)[C@H](Cc3ccc(O)cc3)N(C)C(=O)COc3cccc2c3)cc1OC (stereo partly drawn) [compound 148]	50.7%	12.0%	
COc1ccc(CC[C@H]2OC(=O)[C@@H]3CCCCN3C(=O)C(=O)C(C)(C)COC(=O)C=CCCN(C)C(=O)[C@@H]3CCCN3C(=O)[C@H](COC(C)(C)C)N(C)C(=O)[C@@H](c3ccccc3)NC(=O)[C@H](C)N(C)C(=O)COc3cc(F)cc2c3)cc1OC (racemic) [compound 153]	93.2%	71.7%	
COc1ccc(CC[C@H]2OC(=O)[C@@H]3CCCCN3C(=O)C(=O)C(C)(C)COC(=O)C=CCCN(C)C(=O)C(c3ccccc3)NC(=O)[C@H](COC(C)(C)C)N(C)C(=O)[C@@H](CC(C)C)NC(=O)CN(C)C(=O)COc3cccc2c3)cc1OC (stereo partly drawn) [compound 15]	53.4%	8.7%	
COc1ccc(CC[C@H]2OC(=O)[C@@H]3CCCCN3C(=O)C(=O)C(C)(C)COC(=O)C=CCCN(C)C(=O)[C@@H](Cc3ccccc3)NC(=O)[C@H](COC(C)(C)C)N(C)C(=O)[C@H](Cc3ccc4ccccc4c3)NC(=O)[C@H](C)N(C)C(=O)COc3cccc2c3)cc1OC [compound 24]	57.4%	40.3%	
COc1ccc(CC[C@H]2OC(=O)[C@@H]3CCCCN3C(=O)C(=O)C(C)(C)COC(=O)C=CCCN(C)C(=O)[C@@H]3CCCN3C(=O)[C@H](COC(C)(C)C)N(C)C(=O)C(c3ccccc3)N(C)C(=O)[C@H](C)NC(=O)COc3cccc2c3)cc1OC (stereo partly drawn) [compound 137]	44.5%	9.4%	
COc1ccc(CC[C@H]2OC(=O)[C@@H]3CCCCN3C(=O)C(=O)C(C)(C)COC(=O)C=CCCN(C)C(=O)[C@@H]3CCCN3C(=O)[C@H](Cc3ccccc3)N(C)C(=O)[C@@H](C)NC(=O)CN(C)C(=O)COc3cccc2c3)cc1OC [compound 71]	57.0%	25.3%	
COc1ccc(CC[C@H]2OC(=O)[C@@H]3CCCCN3C(=O)C(=O)C(C)(C)COC(=O)C=CCCN(C)C(=O)[C@@H](CC(C)C)NC(=O)[C@H](COC(C)(C)C)N(C)C(=O)[C@H](Cc3ccc4ccccc4c3)NC(=O)[C@H](C)N(C)C(=O)COc3cccc2c3)cc1OC [compound 22]	56.9%	61.8%	
COc1ccc(CC[C@H]2OC(=O)[C@@H]3CCCCN3C(=O)C(=O)C(C)(C)COC(=O)C=CCCN(C)C(=O)[C@@H](CC(C)C)NC(=O)[C@H](COC(C)(C)C)N(C)C(=O)C(c3ccccc3)NC(=O)[C@H](C)N(C)C(=O)COc3cccc2c3)cc1OC (stereo partly drawn) [compound 52]	61.0%	9.9%	
COc1ccc(CC[C@H]2OC(=O)[C@@H]3CCCCN3C(=O)C(=O)C(C)(C)COC(=O)C=CCCN(C)C(=O)[C@H](CC3CCCCC3)NC(=O)[C@H](COC(C)(C)C)N(C)C(=O)[C@@H](Cc3ccc4ccccc4c3)NC(=O)[C@H](C)N(C)C(=O)COc3cccc2c3)cc1OC [compound 27]	72.1%	78.4%	
